Results: ChEMBL document CHEMBL4382254, “Design, synthesis, structure-activity relationships and mechanism of action of new quinoline derivatives as potential antitumor agents” (Eur J Med Chem, 2019)

Columns and labels:
[1] = system: BGC-823; experiment: Cytotoxicity against human BGC823 cells after 48 hrs by MTT assay; assay type: functional, cell-based; conditions: BGC-823, 48 h
[2] = system: HCT-116; experiment: Cytotoxicity against human HCT116 cells after 48 hrs by MTT assay; assay type: functional, cell-based; conditions: HCT-116, 48 h
[3] = system: RKO; experiment: Cytotoxicity against human RKO cells after 48 hrs by MTT assay; assay type: functional, cell-based
[4] = system: HepG2; experiment: Cytotoxicity against human HepG2 cells after 48 hrs by MTT assay; assay type: functional, cell-based; conditions: HepG2, 48 h
[5] = system: DLD-1; experiment: Cytotoxicity against human DLD1 cells after 48 hrs by MTT assay; assay type: functional, cell-based; conditions: DLD-1, 48 h
[6] = system: SK-OV-3; experiment: Cytotoxicity against human SKOV3 cells after 48 hrs by MTT assay; assay type: functional, cell-based; conditions: SK-OV-3, 48 h
[7] = system: NCI-H1650; experiment: Cytotoxicity against human NCI-H1650 cells after 48 hrs by MTT assay; assay type: functional, cell-based; conditions: NCI-H1650, 48 h
[8] = Solubility of the compound in water; assay type: physicochemical

| SMILES | IC50 [1] | IC50 [2] | IC50 [3] | IC50 [4] | IC50 [5] | IC50 [6] | IC50 [7] | solubility [8] |
| --- | --- | --- | --- | --- | --- | --- | --- | --- |
| Clc1ccnc2cc(OCCc3ccccc3)ccc12 | 2010 nM | 2180 nM | 2560 nM | 3310 nM | 3380 nM | 2010 nM | 2300 nM |  |
| CC(C)Oc1ccc2c(Cl)ccnc2c1 | 2630 nM | 2590 nM | 2690 nM | 2050 nM | 3240 nM | 3060 nM | 2310 nM |  |
| COc1ccc2c(Cl)ccnc2c1 | > 10000 nM | 8820 nM | 9650 nM | 6070 nM | > 10000 nM | > 10000 nM | 8160 nM |  |
| CN(C)CCCNc1ccnc2cc(OCc3ccc(F)cc3)ccc12 | 490 nM | 740 nM | 1230 nM | 1570 nM | 2540 nM | 1280 nM | 940 nM | > 10000 µg/mL |
| Fc1ccc(COc2ccc3c(Cl)ccnc3c2)cc1 | 2780 nM | 2070 nM | 1980 nM | 3010 nM | 3230 nM | 2780 nM | 2230 nM |  |
| CCCCCCOc1ccc2c(Cl)ccnc2c1 | 2380 nM | 2440 nM | 2720 nM | 2420 nM | 2660 nM | > 10000 nM | 2080 nM |  |
| C=CCOc1ccc2c(Cl)ccnc2c1 | 2930 nM | 2570 nM | 2460 nM | 2770 nM | 2890 nM | 4030 nM | 2280 nM |  |
| CCOc1ccc2c(NCCCN(C)C)ccnc2c1 | 9810 nM | 3380 nM | 5240 nM | 5860 nM | 8540 nM | 6780 nM | 3830 nM | > 10000 µg/mL |
| Clc1ccnc2cc(OCCCc3ccccc3)ccc12 | 2370 nM | 800 nM | 1420 nM | 1780 nM | 2140 nM | 3610 nM | 630 nM |  |
| CCOc1ccc2c(Cl)ccnc2c1 | 3910 nM | 3160 nM | 3870 nM | 2660 nM | 2750 nM | 3460 nM | 3340 nM |  |
| CCCCCCOc1ccc2c(NCCN(C)C)ccnc2c1 | 1090 nM | 850 nM | 1120 nM | 1370 nM | 1870 nM | 1860 nM | 930 nM | > 10000 µg/mL |
| CN(C)CCNc1ccnc2cc(OCc3ccccc3)ccc12 | 1250 nM | 1980 nM | 2350 nM | 3120 nM | 2140 nM | 2350 nM | 1620 nM | > 10000 µg/mL |
| CCCCOc1ccc2c(Cl)ccnc2c1 | 3610 nM | 2740 nM | 3050 nM | 2640 nM | 3780 nM | 4130 nM | 2570 nM |  |
| Oc1ccnc2cc(Cl)ccc12 | > 10000 nM | > 10000 nM | > 10000 nM | > 10000 nM | > 10000 nM | > 10000 nM | > 10000 nM |  |
| CC(C)COc1ccc2c(Cl)ccnc2c1 | 3030 nM | 2490 nM | 2680 nM | 2250 nM | 3100 nM | 3190 nM | 2100 nM |  |
| C=CCOc1ccc2c(NCCCN(C)C)ccnc2c1 | 6680 nM | 2100 nM | 3560 nM | 3990 nM | 5180 nM | 4250 nM | 3120 nM | > 10000 µg/mL |
| CCCCCCCCOc1ccc2c(Cl)ccnc2c1 | 4300 nM | 2820 nM | 3640 nM | 2640 nM | 4500 nM | 4300 nM | 3240 nM |  |
| Clc1ccnc2cc(OCc3ccccc3)ccc12 | 5170 nM | 2470 nM | 2410 nM | 2680 nM | 3270 nM | 5170 nM | 2720 nM |  |
| CCOc1ccc2c(NCCN(C)C)ccnc2c1 | 2520 nM | 2570 nM | 3650 nM | 5680 nM | 6240 nM | 4620 nM | 3490 nM | > 10000 µg/mL |
| C=CCOc1ccc2c(NCCN(C)C)ccnc2c1 | 1360 nM | 860 nM | 1270 nM | 1660 nM | 1530 nM | 1560 nM | 930 nM | > 10000 µg/mL |
